Article PMC8880268, “Magnolol and Luteolin Inhibition of α-Glucosidase Activity: Kinetics and Type of Interaction Detected by In Vitro and In Silico Studies” (Pharmaceuticals, 2022)
Entries after “also recorded” stand apart in the source; their conditions may differ. Read-outs that look alike come from different tables or passages of the source.

Columns and labels:
[1] = system: α-glucosidase; conditions: cited from earlier work; for type of inhibition (inhibition kinetic assays): ref 19; for IC50: studied with 0.5 µM of α-glucosidase ref 19
[2] = target: T1, α-glucosidase (Saccharomyces cerevisiae, UniProt P38158); experiment: Inactivation kinetics, time course of α-glucosidase activity; format: biochemical; conditions: enzyme 0.075 µM, pNPG 2 mM
T1 construct: purchased Merck KGaA, Darmstadt, Germany
Procedure: The enzyme and substrate concentrations were 0.075 µM and 2 mM, respectively.

[3] = target: T1, α-glucosidase; experiment: Yeast α-glucosidase inhibitory assay (pNPG substrate, absorbance 405 nm); format: biochemical; conditions: for reversibility of inhibition: plots v vs. [α-glucosidase] at different inhibitor concentrations; for IC50: 2 mM pNPG
Procedure: α-Glucosidase inhibitory activity was determined according to a previous method. Briefly, 0.1 mM PBS (pH 6.8) was used to dissolve α-glucosidase and pNPG. In detail, 80 μL of PBS or 80 μL of test sample were added to 96-well plates. Successively, 20 μL of enzyme (0.025–0.125 µM) were added to each well. Magnolol (10–100 μM) and luteolin (5–50 μM) were prepared in DMSO (<1% v/v). […] Each sample was incubated with α-glucosidase for 10 min at 37 °C. The reaction started by adding 200 μL of pNPG (2 mM). The absorbance values were detected at 405 nm for 60 min, using a PerkinElmer Victor Nivo microplate spectrophotometer (Waltham, MA, USA). The α-glucosidase activity in the absence of inhibitors was defined as 100%. The half-maximal inhibitory concentration (IC50) was estimated by plot of relative enzymatic activity vs. inhibitor concentration.

[4] = target: T1, α-glucosidase; experiment: Kinetic analysis of yeast α-glucosidase inhibition (Michaelis–Menten and Lineweaver–Burk plots); format: biochemical; conditions: for type of inhibition: Michaelis–Menten and Lineweaver–Burk plots; for Kcat of α-glucosidase: 0.075 µM α-glucosidase
Procedure: The type of enzyme inhibition exerted by inhibitors was evaluated from kinetic studies using different substrate concentrations (0.25–2.5 mM pNPG) applying Michaelis–Menten and Lineweaver–Burk plots. Inhibition constants (Ki) were determined by plots of the Y-intercept of the Lineweaver–Burk plot vs. inhibitor concentration.

[5] = target: T1, α-glucosidase; experiment: Fluorescence quenching analysis and thermodynamic parameters; format: binding; conditions: for ΔG° (free energy change) / ΔH° (enthalpy change) / ∆S° (entropy change): Van ’t Hoff equation; for Ksv (Stern–Volmer quenching constant): pH 6.8, α-glucosidase 0.35 µM; for ΔH° (enthalpy change) / ∆S° (entropy change): 298–310 K; for number of binding sites: no temperature stated; for Kd: read-out: Ka (binding constant) (converted)
Procedure: The interaction of inhibitors with α-glucosidase was studied using the fluorescence quenching method. […] Measurements were made in the emission range of 300–450 nm, with an excitation of 280 nm, after 10 min of stabilization. The fluorescent spectra of α-glucosidase (0.35 µM) and each inhibitor (0–1.0 µM) were carried out at three different temperatures (298, 304, and 310 K) and the bandwidths were set at 5 nm for both emission and excitation slits. For each sample, three fluorescence spectra were acquired, and the blank was subtracted. The compound quenching mechanism was assessed using the Stern–Volmer equation: F0 / F = 1 + Ksv[Q] = 1 + Kq^.τo[Q], where F0 and F are the fluorescence measure in absence and in presence of different concentrations of quencher, respectively; Ksv is the Stern–Volmer quenching constant; Kq is the coefficient of quencher rate coefficient; τ0 is the life time of the excited state; and [Q] is the concentration of the quencher.
Further elaboration of the equilibrium within the free and bound molecules can be achieved through the analysis of the fluorescence emission data utilizing the following equation: log (F0 − F) / F = log Ka + n log [Q], which obtains the binding constant (Ka) and the number of binding sites per protein (n) for the enzyme-inhibitor system.
Thermodynamic spontaneity is an important factor in the study of protein-ligand interaction. A system tends not only toward a lower energy state (enthalpy, ΔH), but also according to a state of disorder (entropy, ΔS). Thermodynamic parameters were obtained according to the Van ’t Hoff equation and the plot of “log Ka vs. 1/T”. The trade-off between enthalpy (ΔH°) and entropy (ΔS°) is used to obtain the standard free energy variation (ΔG°).

[6] = target: T1, α-glucosidase; experiment: Synchronous fluorescence spectra; conditions: pH 6.8, 298 K
Description: The application of this method allows the identification of conformational changes in proteins according to the spectroscopic behavior of the tyrosine and tryptophan residues. Synchronous fluorescence spectra were collected in the emission range of 260–320 nm. The difference between excitation and emission wavelength (Δλ) was established at 15 nm (tyrosine residues) or at 60 nm (tryptophan residues).

[7] = target: T1, α-glucosidase; experiment: Non-radiation energy transfer (Förster resonance energy transfer) distance; format: binding; conditions: room temperature, pH 6.8, 0.35 µM
Procedure: The distance between magnolol and α-glucosidase was calculated according to the theory of Förster resonance energy transfer. To calculate the distance (r) between the donor and the acceptor, the emission wavelength of α-glucosidase was overlapped with the absorption band of the inhibitor. The fluorescence spectrum and the UV absorption spectrum of the inhibitor were collected in the wavelength range of 300–500 nm, at room temperature, pH 6.8, and at a concentration of 0.35 µM.

T1 sequence (P38158 whole entry): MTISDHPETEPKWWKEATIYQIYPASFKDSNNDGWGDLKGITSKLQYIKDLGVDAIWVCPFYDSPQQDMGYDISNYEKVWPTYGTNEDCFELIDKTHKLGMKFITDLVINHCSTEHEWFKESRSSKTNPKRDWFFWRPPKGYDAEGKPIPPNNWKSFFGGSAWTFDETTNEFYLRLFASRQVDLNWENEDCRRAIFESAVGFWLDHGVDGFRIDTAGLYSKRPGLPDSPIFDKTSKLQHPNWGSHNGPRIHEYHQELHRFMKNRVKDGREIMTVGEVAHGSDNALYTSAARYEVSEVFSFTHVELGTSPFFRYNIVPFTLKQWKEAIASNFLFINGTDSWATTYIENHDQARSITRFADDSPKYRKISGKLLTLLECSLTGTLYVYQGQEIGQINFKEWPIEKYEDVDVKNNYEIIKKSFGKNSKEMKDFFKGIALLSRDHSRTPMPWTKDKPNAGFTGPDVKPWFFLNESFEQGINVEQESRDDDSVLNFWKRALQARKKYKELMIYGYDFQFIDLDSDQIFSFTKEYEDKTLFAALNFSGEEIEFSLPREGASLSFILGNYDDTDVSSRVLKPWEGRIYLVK

## O=C(OC[C@@H]1O[C@@H](Oc2c(-c3ccc(O)c(O)c3)oc3cc(O)cc(O)c3c2=O)[C@@H](O)[C@H](O)[C@H]1O)c1cc(O)c(O)c(O)c1 [compound 5]
[1]
  type of inhibition (inhibition kinetic assays): competitive inhibitor
  IC50: 27.8 µM

## O=C(OC1C(O)C(CO)OC(Oc2c(-c3ccc(O)c(O)c3)oc3cc(O)cc(O)c3c2=O)C1O)c1cc(O)c(O)c(O)c1 (stereo not shown) [compound 3]
[1]
  type of inhibition (inhibition kinetic assays): non-competitive
  IC50: 0.97 µM

## O=C(OC[C@@H]1O[C@@H](Oc2c(-c3ccc(O)c(O)c3)oc3cc(O)cc(O)c3c2=O)[C@@H](O)[C@H](O)[C@@H]1O)c1cc(O)c(O)c(O)c1 [compound 4]
[1]
  type of inhibition (inhibition kinetic assays): non-competitive inhibitor
  IC50: 1.35 µM

## C[C@H]1O[C@H](O[C@H]2[C@H](O)[C@@H](O)[C@@H](O[C@H]3[C@H](O)[C@@H](O)C(O)O[C@@H]3CO)O[C@@H]2CO)[C@H](O)[C@@H](O)[C@@H]1N[C@H]1C=C(CO)[C@@H](O)[C@H](O)[C@H]1O (stereo partly shown) [Acarbose, reference compound]
[2]; inhibitor 200 µM
  Inactivation rate constant K: 2.76 ± 0.07 10^−4 s^−1
[2]; inhibitor 400 µM
  Inactivation rate constant K: 2.81 ± 0.07 10^−4 s^−1
[2]; inhibitor 800 µM
  Inactivation rate constant K: 2.83 ± 0.05 10^−4 s^−1
[2]; inhibitor 1600 µM
  Inactivation rate constant K: 2.84 ± 0.03 10^−4 s^−1
[2]; inhibitor 3200 µM
  Inactivation rate constant K: 2.85 ± 0.01 10^−4 s^−1
[2]; inhibitor 4000 µM
  Inactivation rate constant K: 2.85 ± 0.09 10^−4 s^−1
[3]
  reversibility of inhibition: reversible inhibition
[4]
  type of inhibition: competitive inhibitor
[4]; inhibitor 200 µM
  Kcat of α-glucosidase: 2.83 ± 0.33 s⁻¹
[4]; inhibitor 200 µM, converted using the Lambert–Beer relationship
  Vmax of α-glucosidase: 12.7 ± 1.50 µM/min
[4]; inhibitor 400 µM
  Kcat of α-glucosidase: 2.87 ± 0.39 s⁻¹
[4]; inhibitor 400 µM, converted using the Lambert–Beer relationship
  Vmax of α-glucosidase: 12.9 ± 1.70 µM/min
[4]; inhibitor 800 µM
  Kcat of α-glucosidase: 2.77 ± 0.44 s⁻¹
[4]; inhibitor 800 µM, converted using the Lambert–Beer relationship
  Vmax of α-glucosidase: 12.4 ± 2.00 µM/min
[4]; inhibitor 1600 µM
  Vmax of α-glucosidase: 0.120 ± 0.016 ΔΟD/min
  Kcat of α-glucosidase: 2.66 ± 0.36 s⁻¹
[4]; inhibitor 1600 µM, converted using the Lambert–Beer relationship
  Vmax of α-glucosidase: 12.0 ± 1.60 µM/min
[4]; inhibitor 3200 µM
  Kcat of α-glucosidase: 2.79 ± 0.67 s⁻¹
[4]; inhibitor 3200 µM, converted using the Lambert–Beer relationship
  Vmax of α-glucosidase: 12.5 ± 3.00 µM/min
[4]; inhibitor 4000 µM
  Kcat of α-glucosidase: 3.12 ± 1.04 s⁻¹
[4]; inhibitor 4000 µM, converted using the Lambert–Beer relationship
  Vmax of α-glucosidase: 14.1 ± 4.70 µM/min
[5]; 298 K
  Kq (bimolecular quenching constant): 3.75 ± 0.041 10^13 M^−1 s^−1
  n (number of binding sites): 1.77
  ΔG° (free energy change): 0.621 kcal/mol
  Ksv (Stern–Volmer quenching constant): 3.75 ± 0.04 10^5 M^−1
[5]
  ΔH° (enthalpy change): -10.88 kcal/mol
  ∆S° (entropy change): −161.47 J mol^−1K^−1
  number of binding sites: approximately 1
[5]; 304 K
  Kq (bimolecular quenching constant): 1.89 ± 0.014 10^13 M^−1 s^−1
  n (number of binding sites): 1.38
  ΔG° (free energy change): 0.853 kcal/mol
  Ksv (Stern–Volmer quenching constant): 1.89 ± 0.01 10^5 M^−1
[5]; 310 K
  Kq (bimolecular quenching constant): 1.80 ± 0.020 10^13 M^−1 s^−1
  n (number of binding sites): 1.36
  ΔG° (free energy change): 1.09 kcal/mol
  Ksv (Stern–Volmer quenching constant): 1.80 ± 0.02 10^5 M^−1

## O=c1c(O)c(-c2ccc(O)c(O)c2)oc2cc(O)cc(O)c12 [compound 2, quercetin]
[1]
  type of inhibition (inhibition kinetic assays): non-competitive inhibitors

## O=c1c(O)c(-c2ccc(O)cc2)oc2cc(O)cc(O)c12 [compound 1, kaempferol]
[1]
  type of inhibition (inhibition kinetic assays): non-competitive inhibitors

## C=CCc1ccc(O)c(-c2cc(CC=C)ccc2O)c1 [Magnolol, 5,5′-diallyl-biphenyl-2,2′-diol]
[6]; ∆λ = 15 nm (tyrosine residues)
  shift of synchronous fluorescence maximum: red shift from 286 to 290
[6]; ∆λ = 60 nm (tryptophan residues)
  shift of synchronous fluorescence maximum: no modification
[2]; inhibitor 10 µM
  Inactivation rate constant K: 2.78 ± 0.05 10^−4 s^−1
[2]; inhibitor 25 µM
  Inactivation rate constant K: 2.81 ± 0.03 10^−4 s^−1
[2]; inhibitor 50 µM
  Inactivation rate constant K: 2.81 ± 0.01 10^−4 s^−1
[2]; inhibitor 100 µM
  Inactivation rate constant K: 2.85 ± 0.08 10^−4 s^−1
[3]; IC50, α-glucosidase 0.025 × 10^−6 M
  IC50: 28.3 ± 10.7 µM
[3]; IC50, α-glucosidase 0.05 × 10^−6 M
  IC50: 28.5 ± 11 µM
[3]; IC50, α-glucosidase 0.075 × 10^−6 M
  IC50: 32.6 ± 10.5 µM
[3]; IC50, α-glucosidase 0.125 × 10^−6 M
  IC50: 35.5 ± 10.2 µM
[3]
  reversibility of inhibition: reversible inhibition
[3]; −Log IC50, α-glucosidase 0.05 × 10^−6 M
  IC50: 28.2 µM
[4]
  type of inhibition: mixed-type antagonism
[4]; listed as magnolol
  type of inhibition: mixed-type inhibition; also recorded: mixed-type inhibitor; also recorded: reversible mixed-type interaction
[4]; inhibitor 10 µM
  Kcat of α-glucosidase: 3.59 ± 0.17 s⁻¹
[4]; inhibitor 10 µM, converted using the Lambert–Beer relationship
  Vmax of α-glucosidase: 16.2 ± 0.80 µM/min
[4]; inhibitor 25 µM
  Kcat of α-glucosidase: 3.29 ± 0.15 s⁻¹
[4]; inhibitor 25 µM, converted using the Lambert–Beer relationship
  Vmax of α-glucosidase: 14.8 ± 0.70 µM/min
[4]; inhibitor 50 µM
  Kcat of α-glucosidase: 2.86 ± 0.13 s⁻¹
[4]; inhibitor 50 µM, converted using the Lambert–Beer relationship
  Vmax of α-glucosidase: 12.9 ± 0.60 µM/min
[4]; inhibitor 100 µM
  Kcat of α-glucosidase: 2.22 ± 0.29 s⁻¹
[4]; inhibitor 100 µM, converted using the Lambert–Beer relationship
  Vmax of α-glucosidase: 10.0 ± 1.30 µM/min
[5]; 298 K
  Kq (bimolecular quenching constant): 3.90 ± 0.007 10^13 M^−1 s^−1
  n (number of binding sites): 0.39
  Ksv (Stern–Volmer quenching constant): 3.89 ± 0.01 10^5 M^−1
  Kd: 3.37 µM
[5]
  ΔH° (enthalpy change): 9.376 kcal/mol
  ∆S° (entropy change): 121.83 J mol^−1K^−1
  number of binding sites: ~0.6
[5]; 304 K
  Kq (bimolecular quenching constant): 4.22 ± 0.011 10^13 M^−1 s^−1
  n (number of binding sites): 0.42
  ΔG° (free energy change): -0.523 kcal/mol
  Ksv (Stern–Volmer quenching constant): 4.22 ± 0.01 10^5 M^−1
  Kd: 2.2 µM
[5]; 310 K
  Kq (bimolecular quenching constant): 5.30 ± 0.022 10^13 M^−1 s^−1
  n (number of binding sites): 0.65
  ΔG° (free energy change): -0.349 kcal/mol
  Ksv (Stern–Volmer quenching constant): 5.30 ± 0.02 10^5 M^−1
  Kd: 1.82 µM
[5]; based on Ksv and Kq values
  fluorescence quenching mechanism: static-dynamic quenching process
[7]
  calculated distance between inhibitor and α-glucosidase: 2.06 nm
